In PubChem BioAssay (NCI):
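Five compound concentrations were applied to cells in 96-well plates for 48 hours; endpoints were derived by simple linear interpolation of the resulting dose-response curve. GI50 is the concentration that inhibits growth by half. The concentration for full growth arrest is given as TGI.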

Legend:
Test in all cases: NCI anticancer screen, dose series, 48 h
786-0 renal = test system: 786-0 renal
A498 renal = test system: A498 renal
A549 NSCLC = test system: A549 NSCLC
ACHN renal = test system: ACHN renal
BT-549 breast = test system: BT-549 breast
CAKI-1 renal = test system: CAKI-1 renal
CCRF-CEM leukemia = test system: CCRF-CEM leukemia
COLO 205 colon = test system: COLO 205 colon
DU-145 prostate = test system: DU-145 prostate
EKVX NSCLC = test system: EKVX NSCLC
HCC-2998 colon = test system: HCC-2998 colon
HCT-116 colon = test system: HCT-116 colon
HCT-15 colon = test system: HCT-15 colon
HL-60(TB) leukemia = test system: HL-60(TB) leukemia
HOP-62 NSCLC = test system: HOP-62 NSCLC
HS 578T breast = test system: HS 578T breast
HT29 colon = test system: HT29 colon
IGROV1 ovarian = test system: IGROV1 ovarian
K-562 leukemia = test system: K-562 leukemia
KM12 colon = test system: KM12 colon
LOX IMVI melanoma = test system: LOX IMVI melanoma
M14 melanoma = test system: M14 melanoma
MALME-3M melanoma = test system: MALME-3M melanoma
MCF7 breast = test system: MCF7 breast
MDA-MB-231 breast = test system: MDA-MB-231 breast
MDA-MB-435 = test system: MDA-MB-435
MOLT-4 leukemia = test system: MOLT-4 leukemia
NCI-H226 lung = test system: NCI-H226 lung
NCI-H23 lung = test system: NCI-H23 lung
NCI-H460 lung = test system: NCI-H460 lung
NCI-H522 lung = test system: NCI-H522 lung
NCI/ADR-RES ovarian = test system: NCI/ADR-RES ovarian
OVCAR-3 ovarian = test system: OVCAR-3 ovarian
OVCAR-4 ovarian = test system: OVCAR-4 ovarian
OVCAR-5 ovarian = test system: OVCAR-5 ovarian
OVCAR-8 ovarian = test system: OVCAR-8 ovarian
PC-3 prostate = test system: PC-3 prostate
RPMI-8226 leukemia = test system: RPMI-8226 leukemia
SF-268 CNS = test system: SF-268 CNS
SF-295 CNS = test system: SF-295 CNS
SF-539 CNS = test system: SF-539 CNS
SK-MEL-2 melanoma = test system: SK-MEL-2 melanoma
SK-MEL-28 melanoma = test system: SK-MEL-28 melanoma
SK-MEL-5 melanoma = test system: SK-MEL-5 melanoma
SK-OV-3 ovarian = test system: SK-OV-3 ovarian
SN12C renal = test system: SN12C renal
SNB-19 CNS = test system: SNB-19 CNS
SNB-75 CNS = test system: SNB-75 CNS
SW-620 colon = test system: SW-620 colon
T-47D breast = test system: T-47D breast
TK-10 renal = test system: TK-10 renal
U251 CNS = test system: U251 CNS
UACC-257 melanoma = test system: UACC-257 melanoma
UACC-62 melanoma = test system: UACC-62 melanoma
UO-31 renal = test system: UO-31 renal

NC(=O)c1c[nH]c2ncnc(N)c12
GI50 (786-0 renal): > 100 µM
TGI (786-0 renal): > 100 µM
GI50 (A498 renal): 22.9 µM
TGI (A498 renal): 67.4 µM
GI50 (A549 NSCLC): > 100 µM
TGI (A549 NSCLC): > 100 µM
GI50 (ACHN renal): 44.1 µM
TGI (ACHN renal): > 100 µM
GI50 (BT-549 breast): 21.6 µM
TGI (BT-549 breast): > 100 µM
GI50 (CAKI-1 renal): 2.69 µM
TGI (CAKI-1 renal): 33.8 µM
GI50 (CCRF-CEM leukemia): 29.5 µM
TGI (CCRF-CEM leukemia): > 100 µM
GI50 (COLO 205 colon): 27 µM
TGI (COLO 205 colon): > 100 µM
GI50 (DU-145 prostate): 44.6 µM
TGI (DU-145 prostate): > 100 µM
GI50 (EKVX NSCLC): 39 µM
TGI (EKVX NSCLC): > 100 µM
GI50 (HCC-2998 colon): 73 µM
TGI (HCC-2998 colon): > 100 µM
GI50 (HCT-116 colon): 45.5 µM
TGI (HCT-116 colon): > 100 µM
GI50 (HCT-15 colon): 41.8 µM
TGI (HCT-15 colon): > 100 µM
GI50 (HL-60(TB) leukemia): 32.3 µM
TGI (HL-60(TB) leukemia): > 100 µM
GI50 (HOP-62 NSCLC): 53.3 µM
TGI (HOP-62 NSCLC): > 100 µM
GI50 (HS 578T breast): 36.4 µM
TGI (HS 578T breast): > 100 µM
GI50 (HT29 colon): 26.6 µM
TGI (HT29 colon): > 100 µM
GI50 (IGROV1 ovarian): 36.6 µM
TGI (IGROV1 ovarian): > 100 µM
GI50 (K-562 leukemia): 93.9 µM
TGI (K-562 leukemia): > 100 µM
GI50 (KM12 colon): 24.8 µM
TGI (KM12 colon): > 100 µM
GI50 (LOX IMVI melanoma): 48.6 µM
TGI (LOX IMVI melanoma): > 100 µM
GI50 (M14 melanoma): 47.9 µM
TGI (M14 melanoma): > 100 µM
GI50 (MALME-3M melanoma): 21.3 µM
TGI (MALME-3M melanoma): 71.1 µM
GI50 (MCF7 breast): 45.4 µM
TGI (MCF7 breast): > 100 µM
GI50 (MDA-MB-231 breast): 91.5 µM
TGI (MDA-MB-231 breast): > 100 µM
GI50 (MDA-MB-435): 26.6 µM
TGI (MDA-MB-435): > 100 µM
GI50 (MOLT-4 leukemia): 32.9 µM
TGI (MOLT-4 leukemia): > 100 µM
GI50 (NCI-H226 lung): 67.3 µM
TGI (NCI-H226 lung): > 100 µM
GI50 (NCI-H23 lung): > 100 µM
TGI (NCI-H23 lung): > 100 µM
GI50 (NCI-H460 lung): 45.1 µM
TGI (NCI-H460 lung): > 100 µM
GI50 (NCI-H522 lung): > 100 µM
TGI (NCI-H522 lung): > 100 µM
GI50 (NCI/ADR-RES ovarian): > 100 µM
TGI (NCI/ADR-RES ovarian): > 100 µM
GI50 (OVCAR-3 ovarian): 23.5 µM
TGI (OVCAR-3 ovarian): > 100 µM
GI50 (OVCAR-4 ovarian): 24.1 µM
TGI (OVCAR-4 ovarian): > 100 µM
GI50 (OVCAR-5 ovarian): > 100 µM
TGI (OVCAR-5 ovarian): > 100 µM
GI50 (OVCAR-8 ovarian): 90.2 µM
TGI (OVCAR-8 ovarian): > 100 µM
GI50 (PC-3 prostate): 30.3 µM
TGI (PC-3 prostate): > 100 µM
GI50 (RPMI-8226 leukemia): 14.4 µM
TGI (RPMI-8226 leukemia): 50.7 µM
GI50 (SF-268 CNS): 39.3 µM
TGI (SF-268 CNS): > 100 µM
GI50 (SF-295 CNS): 31.1 µM
TGI (SF-295 CNS): > 100 µM
GI50 (SF-539 CNS): 44.8 µM
TGI (SF-539 CNS): > 100 µM
GI50 (SK-MEL-2 melanoma): 47.2 µM
TGI (SK-MEL-2 melanoma): > 100 µM
GI50 (SK-MEL-28 melanoma): 58.8 µM
TGI (SK-MEL-28 melanoma): > 100 µM
GI50 (SK-MEL-5 melanoma): 84.3 µM
TGI (SK-MEL-5 melanoma): > 100 µM
GI50 (SK-OV-3 ovarian): 25.9 µM
TGI (SK-OV-3 ovarian): 83 µM
GI50 (SN12C renal): 71.6 µM
TGI (SN12C renal): > 100 µM
GI50 (SNB-19 CNS): > 100 µM
TGI (SNB-19 CNS): > 100 µM
GI50 (SNB-75 CNS): 13.3 µM
TGI (SNB-75 CNS): 59.3 µM
GI50 (SW-620 colon): 27.1 µM
TGI (SW-620 colon): > 100 µM
GI50 (T-47D breast): 35.3 µM
TGI (T-47D breast): > 100 µM
GI50 (TK-10 renal): 19.6 µM
TGI (TK-10 renal): > 100 µM
GI50 (U251 CNS): > 100 µM
TGI (U251 CNS): > 100 µM
GI50 (UACC-257 melanoma): > 100 µM
TGI (UACC-257 melanoma): > 100 µM
GI50 (UACC-62 melanoma): 95.6 µM
TGI (UACC-62 melanoma): > 100 µM
GI50 (UO-31 renal): 22.4 µM
TGI (UO-31 renal): 80.9 µM
